Experimental findings from patent US11298363B2, “Triazolobenzazepines as vasopressin V1a receptor antagonists” (RICHTER GEDEON NYRT., priority 2017, dated 2022) are described below.

The target in experiment [1] is T1, human vasopressin V1a receptor (Homo sapiens, UniProt P37288). Nature of the experiment: Human vasopressin V1a receptor binding assay. The following applies: 1321N1 cell membranes, [3H]vasopressin; read-out: Ki (nM) on hV1a cell line. The method, boiled down:
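Radioligand competition on membranes from cells expressing human V1a receptor; incubation 60 minutes at 27° C., non-specific binding with 1.2×10^−6 M unlabeled (Arg^8)-vasopressin, filtration separation. Ki by Cheng-Prusoff using Scatchard-derived KD, from at least two independent experiments.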

For experiment [2], the target named is T1, human vasopressin V1a receptor. Nature of the experiment: Functional assay on human vasopressin V1a receptor expressing cell line (intracellular Ca2+ fluorescence). The following applies: 1321N1 cells, (Arg8)-vasopressin at EC80; read-out: IC50 (nM) on hV1a cell line. It is filed as cell-based.

T1 sequence (P37288 whole entry): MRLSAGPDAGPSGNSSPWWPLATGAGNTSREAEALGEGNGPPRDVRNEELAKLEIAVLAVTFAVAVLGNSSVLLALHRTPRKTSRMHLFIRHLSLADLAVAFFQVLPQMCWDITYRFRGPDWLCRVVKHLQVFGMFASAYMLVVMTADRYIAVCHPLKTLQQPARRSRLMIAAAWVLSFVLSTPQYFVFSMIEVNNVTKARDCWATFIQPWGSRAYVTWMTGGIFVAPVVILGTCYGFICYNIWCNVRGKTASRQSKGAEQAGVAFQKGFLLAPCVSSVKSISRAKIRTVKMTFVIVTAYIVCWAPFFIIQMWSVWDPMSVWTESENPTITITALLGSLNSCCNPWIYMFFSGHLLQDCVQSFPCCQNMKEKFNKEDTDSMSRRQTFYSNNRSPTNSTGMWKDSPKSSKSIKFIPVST

On to `CO[C@]1(C(F)(F)F)CC[C@@H](c2nnc3n2-c2ccc(Cl)cc2CC2(C3)OCCO2)CC1` [Example 235, 8′-chloro-1′-[trans-4-methoxy-4-(trifluoromethyl)cyclohexyl]-4′H,6′H-spiro[1,3-dioxolane-2,5′-[1,2,4]triazolo[4,3-a][1]benzazepine]], for which the Ki in experiment [1] is 0.3 nM. In experiment [2], the concentration for half-maximal inhibition (IC50) amounted to 22 nM.
Take `O=C(N[C@H]1Cc2cc(Cl)ccc2-n2c(nnc2[C@H]2CC[C@H](Oc3ccccn3)CC2)C1)c1ccc(F)cc1` [Example 80]: the Ki in experiment [1] worked out at 58 nM. Further, the concentration for half-maximal inhibition (IC50) in experiment [2] turned out to be 520 nM.
The like results for `OCCOC1Cc2cc(Cl)ccc2-n2c(nnc2[C@H]2CC[C@H](Oc3ccccn3)CC2)C1` (stereo partly drawn) [Example 136, 2-({8-chloro-1-[trans-4-(pyridin-2-yloxy)cyclohexyl]-5,6-dihydro-4H-[1,2,4]triazolo[4,3-a][1]benzazepin-5-yl}oxy)ethanol] were, in that order, 0.2 nM and 1.6 nM.
The corresponding values for `CCN[C@H]1Cc2cc(Cl)ccc2-n2c(nnc2[C@H]2CC[C@H](Oc3ccccn3)CC2)C1` [Example 77, (5S)-8-chloro-N-ethyl-1-[trans-4-(pyridin-2-yloxy)cyclohexyl]-5,6-dihydro-4H-[1,2,4]triazolo[4,3-a][1]benzazepine-5-amine] are 1.9 nM and 18 nM.
The corresponding values for `O=C1Cc2cc(Br)ccc2-n2c(nnc2[C@H]2CC[C@H](Oc3ccccn3)CC2)C1` [Example 64] are 0.5 nM and 1.1 nM.
In the case of `COC1Cc2cc(Cl)ccc2-n2c(nnc2[C@H]2CCN(Cc3ccccn3)C2)C1` (stereo partly drawn) [Example 253, 8-chloro-5-methoxy-1-[(3S)-1-(pyridin-2-ylmethyl)pyrrolidin-3-yl]-5,6-dihydro-4H-[1,2,4]triazolo[4,3-a][1]benzazepine], the Ki in experiment [1] stood at 5 nM. Moreover, in experiment [2], the IC50 was 66 nM.
Take `CC(C)NC1Cc2cc(Cl)ccc2-n2c(nnc2C2CCN(c3ccccn3)CC2)C1` (stereo not drawn) [Example 135, 8-chloro-N-(propan-2-yl)-1-[l-(pyridin-2-yl)piperidin-4-yl]-5,6-dihydro-4H-[1,2,4]triazolo[4,3-a][1]benzazepin-5-amine]: in experiment [1], the Ki was found to be 2.9 nM. The IC50 in experiment [2] is 54 nM.
Consider `Clc1ccc2c(c1)CC1(Cc3nnc(C4CCN(Cc5ccccn5)C4)n3-2)OCCO1` (centres unmarked) [Example 239, 8′-chloro-1′-[1-(pyridin-2-ylmethyl)pyrrolidin-3-yl]-4′H,6′H-spiro[1,3-dioxolane-2,5′-[1,2,4]triazolo[4,3-a][1]benzazepine]], for which the Ki in experiment [1] came out at 1.2 nM. The half-inhibitory concentration (IC50) in experiment [2] was found to be 5.6 nM.
The corresponding values for `CC(C)(C)C(=O)N[C@H]1Cc2cc(Cl)ccc2-n2c(nnc2[C@H]2CC[C@H](Oc3ccccn3)CC2)C1` [Example 118] are 66 nM and 251 nM.
For `Clc1ccc2c(c1)CC1(Cc3nnc(N4CCN(c5ncccc5Cl)CC4)n3-2)OCCO1` [Example 164, 8′-chloro-1-[4-(3-chloropyridin-2-yl)piperazin-1-yl]-4′H,6′H-spiro[1,3-dioxolane-2,5′-[1,2,4]triazolo[4,3-a][1]benzazepine]], in experiment [1], the Ki was 0.3 nM. Also, in experiment [2], the IC50 was 0.9 nM.
Take `COCCOC1Cc2cc(Cl)ccc2-n2c(nnc2[C@H]2CC[C@H](Oc3ccccn3)CC2)C1` (stereo partly drawn) [Example 202, 8-chloro-5-(2-methoxyethoxy)-1-[trans-4-(pyridin-2-yloxy)cyclohexyl]-5,6-dihydro-4H-[1,2,4]triazolo[4,3-a][1]benzazepine]: the Ki in experiment [1] was 0.4 nM. Also, the 50% inhibitory concentration (IC50) in experiment [2] came to 1 nM.
Take `COc1ccc(CN(C)[C@H]2CC[C@H](c3nnc4n3-c3ccc(Cl)cc3CC3(C4)OCCO3)CC2)cc1` [Example 230, Trans-4-(8′-chloro-4′H,6′H-spiro[1,3-dioxolane-2,5′-[1,2,4]triazolo[4,3-a][1]benzazepin]-1′-yl)-N-(4-methoxybenzyl)-N-methylcyclohexanamine]: the Ki in experiment [1] is 0.7 nM. Moreover, the 50% inhibitory concentration (IC50) in experiment [2] was found to be 12 nM.
`O=C(OC1Cc2cc(Cl)ccc2-n2c(nnc2[C@H]2CC[C@H](Oc3ccccn3)CC2)C1)C1CCC(F)(F)CC1` (stereo partly drawn) [Example 212, 8-chloro-1-[trans-4-(pyridin-2-yloxy)cyclohexyl]-5,6-dihydro-4H-[1,2,4]triazolo[4,3-a][1]benzazepin-5-yl 4,4-difluorocyclohexanecarboxylate]: the Ki in experiment [1] was 2.8 nM. Besides, the IC50 in experiment [2] is 34 nM.
The like results for `CC(C)NC1Cc2cc(C(F)(F)F)ccc2-n2c(nnc2[C@H]2CC[C@H](Oc3ccccn3)CC2)C1` (stereo partly drawn) [Example 36, N-(propan-2-yl)-1-[trans-4-(pyridin-2-yloxy)cyclohexyl]-8-(trifluoromethyl)-5,6-dihydro-4H-[1,2,4]triazolo[4,3-a][1]benzazepine-5-amine] were, in that order, 36 nM and 610 nM.
Take `O=C1Cc2cc(Br)ccc2-n2c(nnc2[C@H]2CC[C@H](C(F)(F)F)CC2)C1` [Example 91, 8-bromo-1-[trans-4-(trifluoromethyl)cyclohexyl]-4H-[1,2,4]triazolo[4,3-a][1]benzazepin-5(6H)-one]: the Ki in experiment [1] was 9.1 nM. For the same molecule, the IC50 in experiment [2] was found to be 45 nM.
In the case of `Clc1ccc2c(c1)CC1(Cc3nnc([C@@H]4CCN(Cc5ccccn5)C4)n3-2)OCCO1` [Example 246, 8′-chloro-1′-[(3R)-1-(pyridin-2-ylmethyl)pyrrolidin-3-yl]-4′H,6′H-spiro[1,3-dioxolane-2,5′-[1,2,4]triazolo[4,3-a][1]benzazepine]], in experiment [1], the Ki came out at 0.5 nM. Moreover, in experiment [2], the IC50 came out at 3.4 nM.
On to `Clc1ccc2c(c1)C[C@@H](N1CCCC1)Cc1nnc([C@H]3CC[C@H](Oc4ccccn4)CC3)n1-2` [Example 174, (5R)-8-chloro-1-[trans-4-pyridin-2-loxcyclohexyl]-5-(pyrrolidin-1-yl)-5,6-dihydro-4H-[1,2,4]triazolo[4,3-a][1]benzazepine], for which, in experiment [1], the Ki was determined as 0.7 nM. In addition, the IC50 in experiment [2] was found to be 3 nM.
In the case of `CC(C)C(=O)N[C@H]1Cc2cc(Cl)ccc2-n2c(nnc2[C@H]2CC[C@H](Oc3ccccn3)CC2)C1` [Example 120, N-{(5S)-8-chloro-1-[trans-4-(pyridin-2-yloxy)cyclohexyl]-5,6-dihydro-4H-[1,2,4]triazolo[4,3-a][1]benzazepin-5-yl}-2-methylpropanamide], the Ki in experiment [1] came to 52 nM. Also, in experiment [2], the IC50 amounted to 465 nM.
As for `Clc1ccc2c(c1)CC1(Cc3nnc(C4CCN([C@@H]5CCOC5)CC4)n3-2)OCCO1` [Example 188, 8′-chloro-1′-{1-[(3R)tetrahydrofuran-3-yl]piperidin-4-yl}-4′H,6′H-spiro[1,3-dioxolane-2,5′-[1,2,4]triazolo[4,3-a][1]benzazepine]], the Ki in experiment [1] was found to be 0.5 nM. In addition, in experiment [2], the IC50 amounted to 5.3 nM.
In the case of `FC1(F)CCC(NC2Cc3cc(Cl)ccc3-n3c(nnc3[C@H]3CC[C@H](Oc4ccccn4)CC3)C2)CC1` (stereo partly drawn) [Example 30, 8-chloro-N-(4,4-difluorocyclohexyl)-1-[trans-4-(pyridin-2-yloxy)cyclohexyl]-5,6-dihydro-4H-[1,2,4]triazolo[4,3-a][1]benzazepine-5-amine], the Ki in experiment [1] stood at 1.4 nM. For the same molecule, in experiment [2], the IC50 is 15 nM.
The like results for `CC(C)(C)OC(=O)NC1Cc2cc(Cl)ccc2-n2c(nnc2[C@H]2CC[C@H](Oc3ccccn3)CC2)C1` (stereo partly drawn) [Example 5, Tert-butyl {8-chloro-1-[trans-4-(pyridin-2-yloxy)cyclohexyl]-5,6-dihydro-4H-[1,2,4]triazolo[4,3-a][1]benzazepine-5-yl}carbamate] were, in that order, 3.8 nM and 17 nM.
For `COC1Cc2cc(Cl)ccc2-n2c(nnc2[C@H]2CC[C@H](N3CCCC3=O)CC2)C1` (stereo partly drawn) [Example 219, 1-[trans-4-(8-chloro-5-methoxy-5,6-dihydro-4H-[1,2,4]triazolo[4,3-a][1]benzazepin-1-yl)cyclohexyl]pyrrolidin-2-one], the inhibition constant (Ki) in experiment [1] was determined as 0.2 nM. In experiment [2], the IC50 amounted to 22 nM.
In the case of `O=C(N[C@H]1Cc2cc(Cl)ccc2-n2c(nnc2[C@H]2CC[C@H](Oc3ccccn3)CC2)C1)C1CC(F)(F)C1` [Example 210, N-{(5S)-8-chloro-1-[trans-4-(pyridin-2-yloxy)cyclohexyl]-5,6-dihydro-4H-[1,2,4]triazolo[4,3-a][1]benzazepin-5-yl}-3,3-difluorocyclobutanecarboxamide], the Ki in experiment [1] was determined as 56 nM. For the same molecule, the IC50 in experiment [2] turned out to be 292 nM.
The like results for `COC1Cc2cc(Cl)ccc2-n2c(nnc2N2CCC(Oc3ccccn3)CC2)C1` (centres unmarked) [Example 197, 8-chloro-5-methoxy-1-[4-(pyridin-2-yloxy)piperidin-1-yl]-5,6-dihydro-4H-[1,2,4]triazolo[4,3a][1]benzazepine] were, in that order, 0.3 nM and 4.1 nM.
In the case of `CN(C)C1Cc2ccccc2-n2c(nnc2[C@H]2CC[C@H](Oc3ccccn3)CC2)C1` (some centres unmarked) [Example 148], in experiment [1], the Ki is 1.2 nM. The half-inhibitory concentration (IC50) in experiment [2] stood at 26 nM.
For the molecule `CC(C)OC1Cc2cc(Cl)ccc2-n2c(nnc2[C@H]2CC[C@H](Oc3ccccn3)CC2)C1` (stereo partly drawn) [Example 105, 8-chloro-5-(propan-2-yloxy)-1-[trans-4-(pyridin-2-yloxy)cyclohexyl]-5,6-dihydro-4H-[1,2,4]triazolo[4,3-a][1]benzazepine], in experiment [1], the Ki came out at 0.3 nM. For the same molecule, in experiment [2], the IC50 worked out at 1.4 nM.
As for `O=C([C@H]1CC[C@H](c2nnc3n2-c2ccc(Br)cc2CC2(C3)OCCO2)CC1)N1CCCCC1` [Example 85, [Trans-4-(8′-bromo-4′H,6′H-spiro[1,3-dioxolane-2,5′-[1,2,4]triazolo[4,3-a][1]benzazepin]-1′-yl)cyclohexyl](piperidin-1-yl)methanone], the Ki in experiment [1] is 0.4 nM. The IC50 in experiment [2] stood at 1.8 nM.
With `CC(C)(C)C(=O)N[C@@H]1Cc2cc(Cl)ccc2-n2c(nnc2[C@H]2CC[C@H](Oc3ccccn3)CC2)C1` [Example 123, N-{(5R)-8-chloro-1-[trans-4-(pyridin-2-yloxy)cyclohexyl]-5,6-dihydro-4H-[2,4]triazolo[4,3-a][1]benzazepin-5-yl}-2,2-dimethylpropanamide], in experiment [1], the Ki was found to be 2.1 nM. For the same molecule, in experiment [2], the IC50 was 6.3 nM.
